# Assays:
# K562 cells [1] = test: Cell viability (Cell-Titer Blue), K562; assay type: cell-based, human
# Description: Cells were seeded at densities of 7,500 cells/in black flat bottom 96-well plates (Nalge Nunc, Penfield, N.Y., USA) and treated with a dose response of hydroxytyrosol (0-200 μM), oleuropein (0-800 μM), tyrosol (0-1000 μM) and homovanilic acid (0-1000 μM) for 24 hours at 37° C., 5% (v/v) CO2. Cell viability was determined after 24 hour exposure to hydroxytyrosol and measured using the Cell-Titer Blue® Assay kit (Promega, Madison, Wis., USA) according to the manufacturer's instructions. Cell-Titer Blue reagent was added to each well and incubated for 4 hours at 37° C., 5% CO2, before reading fluorescence intensity (550 nm excitation; 615 nm emission) using the Perkin Elmer Victor3 (Perkin Elmer, MA, USA) multi-label plate reader. Alternatively Cells were seeded at densities of 7,500 cells/in black flat bottom 96-well plates (Nalge Nunc, Penfield, N.Y., USA) and treated with 100 μM hydroxytyrosol for 24 hours at 37° C., 5% (v/v) CO2. […] Fluorescence intensity (λex=550 nm and λem=615 nm) was determined using a Perkin Elmer Victor3 multilabel microplate counter (PerkinElmer, Waltham, Mass., USA). Data were expressed as % relative cell viability compared to untreated cells after correction of subtracting the media control fluorescence reading.
# K562 cells [2] = test: Total Antioxidant Capacity Assay, K562; assay type: cell-based, human; conditions: 50 μM hydroxytyrosol or Formulation 2 (4× diluted), 24 hours
compound,measurement,setting,value
"OCCc1ccc(O)c(O)c1 [HT, 4-(2-hydroxyethyl)-1,2-benzenediol]",cell viability of K562 cells,"K562 cells [1]; 20 or 100 μM, 24 hours",significantly reduced in a dose dependent manner
same,effect on the cytotoxicity of doxorubicin,"K562 cells [1]; K562, hydroxytyrosol pre-treatment 24 hours, then doxorubicin",enhances the cytotoxicity of doxorubicin
same,total antioxidant capacity,K562 cells [2],deplete total antioxidant capacity

# Reference: patent US10231939B2, “Hydroxytyrosol and oleuropein compositions for induction of DNA damage, cell death and LSD1 inhibition” (priority 2012, dated 2019)
